Read-outs that look alike come from different tables or passages of the source.
Assays:
human HDAC2 = human HDAC2 (Homo sapiens, UniProt Q92769); assay: Isoform selectivity, recombinant HDAC isoforms; assay type: biochemical; conditions: single experiment assays
Protocol: Isoform selectivity was tested using recombinant HDAC isoforms (Biomol, USA).

PfHDAC1 = molecular target: T1, PfHDAC1 (Plasmodium falciparum, UniProt Q7K6A1); assay: PfHDAC1 fluorescent activity assay; assay type: biochemical
T1 construct: His-tag; FLAG-tag; purchased BPS Bioscience
T1 sequence (Q7K6A1 1-449): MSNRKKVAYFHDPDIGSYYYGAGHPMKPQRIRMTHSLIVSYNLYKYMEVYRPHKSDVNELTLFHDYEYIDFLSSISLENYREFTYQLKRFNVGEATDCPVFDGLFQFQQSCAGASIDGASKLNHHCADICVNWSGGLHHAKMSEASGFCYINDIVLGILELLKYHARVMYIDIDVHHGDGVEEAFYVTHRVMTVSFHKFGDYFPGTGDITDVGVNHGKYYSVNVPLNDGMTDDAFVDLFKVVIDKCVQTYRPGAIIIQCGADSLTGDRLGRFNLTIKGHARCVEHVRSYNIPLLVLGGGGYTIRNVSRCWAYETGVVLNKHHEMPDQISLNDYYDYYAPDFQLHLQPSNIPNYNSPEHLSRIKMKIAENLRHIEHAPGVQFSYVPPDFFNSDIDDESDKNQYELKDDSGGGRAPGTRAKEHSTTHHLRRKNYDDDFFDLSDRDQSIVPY

female gametocytes = assay: Female gametocyte functional viability assay; assay type: cell-based; conditions: Plasmodium falciparum
[1] = tested on: Plasmodium falciparum strain 3D7; assay: In vitro killing profile; assay type: cell-based; conditions: 10 × IC50
Protocol: Briefly, the assay used limiting dilution technique to quantify the number of parasites viable after drug treatment. […] Parasites were treated for […]. The drugs used were renewed daily over the entire treatment period. Samples of parasites were taken from the treated culture every 24 h (0, for control of the initial number of parasites, 24, 48, 72, 96, 120 h’ time points). Following this, the procedure was carried out to wash out the drugs, and drug-free parasites were cultured in 96-well plates by adding fresh erythrocytes and new media (RPMI 1640 medium). Three-fold serial dilution was used with the abovementioned samples after removing the drug to quantify the number of viable parasites after treatment. Parasites were cultured in microtitre plates to allow all wells with viable parasites to render detectable parasitaemia. Four independent serial dilutions were carried out with each sample to correct experimental variations. Samples were examined after 21 days of culturing. Additional sampling was done after 28 days to confirm the growth/no growth.

Cam3.I (MRA1240) = assay: microbe, parasite or virus in culture; assay type: cell-based; conditions: Plasmodium falciparum
Plasma protein binding [2] = assay type: in vitro ADME; conditions: dog, read-out: Plasma protein binding (% bound)
Plasma protein binding [3] = assay type: in vitro ADME; conditions: human
in vitro [4] = assay type: in vitro ADME; conditions: mouse, plasma
in vitro [5] = assay type: in vitro ADME; conditions: human, plasma
CYP1A2 = CYP1A2 (Homo sapiens, UniProt P05177); assay: CYP inhibition; assay type: in vitro ADME
CYP1A2, sequence (P05177 whole entry, species assumed): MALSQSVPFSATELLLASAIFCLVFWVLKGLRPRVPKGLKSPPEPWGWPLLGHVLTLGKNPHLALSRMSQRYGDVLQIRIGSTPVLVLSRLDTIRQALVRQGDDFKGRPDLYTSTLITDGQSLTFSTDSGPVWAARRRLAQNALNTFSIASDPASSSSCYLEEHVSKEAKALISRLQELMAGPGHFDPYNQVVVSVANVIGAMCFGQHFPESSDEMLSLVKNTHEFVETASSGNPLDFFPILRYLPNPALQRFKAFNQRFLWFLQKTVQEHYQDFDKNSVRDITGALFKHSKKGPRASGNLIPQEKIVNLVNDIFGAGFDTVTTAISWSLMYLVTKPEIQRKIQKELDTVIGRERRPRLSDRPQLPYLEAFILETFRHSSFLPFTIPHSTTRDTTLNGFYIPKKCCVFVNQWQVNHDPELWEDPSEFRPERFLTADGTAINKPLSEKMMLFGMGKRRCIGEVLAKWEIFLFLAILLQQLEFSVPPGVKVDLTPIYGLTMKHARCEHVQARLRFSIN

CYP 2D6 = CYP 2D6 (Homo sapiens, UniProt P10635); assay: CYP inhibition; assay type: in vitro ADME
CYP 2D6, sequence (P10635 whole entry, species assumed): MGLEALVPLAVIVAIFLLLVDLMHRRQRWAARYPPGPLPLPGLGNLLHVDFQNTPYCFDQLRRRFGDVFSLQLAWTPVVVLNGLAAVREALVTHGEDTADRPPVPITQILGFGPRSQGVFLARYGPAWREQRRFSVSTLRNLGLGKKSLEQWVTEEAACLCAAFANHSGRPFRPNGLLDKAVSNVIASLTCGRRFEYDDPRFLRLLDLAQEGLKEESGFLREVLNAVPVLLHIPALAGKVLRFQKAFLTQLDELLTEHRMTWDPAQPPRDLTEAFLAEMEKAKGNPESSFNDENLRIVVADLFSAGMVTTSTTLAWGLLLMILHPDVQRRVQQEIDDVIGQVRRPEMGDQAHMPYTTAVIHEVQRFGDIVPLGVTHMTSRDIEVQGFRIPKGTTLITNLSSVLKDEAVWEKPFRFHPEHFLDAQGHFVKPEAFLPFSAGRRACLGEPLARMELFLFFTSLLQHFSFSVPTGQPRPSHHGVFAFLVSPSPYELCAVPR

CYP 3A4 = CYP 3A4 (Homo sapiens, UniProt P08684); assay: CYP inhibition; assay type: in vitro ADME
CYP 3A4, sequence (P08684 whole entry, species assumed): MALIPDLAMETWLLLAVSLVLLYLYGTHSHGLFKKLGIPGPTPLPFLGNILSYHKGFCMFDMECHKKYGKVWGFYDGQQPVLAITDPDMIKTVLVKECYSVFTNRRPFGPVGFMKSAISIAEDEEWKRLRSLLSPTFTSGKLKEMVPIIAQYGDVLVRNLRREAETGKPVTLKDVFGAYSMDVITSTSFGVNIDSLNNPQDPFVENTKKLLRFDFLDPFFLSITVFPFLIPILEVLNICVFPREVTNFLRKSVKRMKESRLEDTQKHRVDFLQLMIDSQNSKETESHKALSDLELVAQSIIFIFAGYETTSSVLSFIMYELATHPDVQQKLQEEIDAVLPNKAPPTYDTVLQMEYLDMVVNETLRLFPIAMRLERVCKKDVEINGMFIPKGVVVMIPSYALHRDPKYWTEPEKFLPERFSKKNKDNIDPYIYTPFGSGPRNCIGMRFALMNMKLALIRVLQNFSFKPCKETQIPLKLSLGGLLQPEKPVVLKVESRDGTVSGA

HepG2 = assay: Cytotoxicity; assay type: cell-based
[6] = Single dose pharmacokinetics in SCID mice; assay type: in vivo; conditions: female, C.B-17/IcrHsd-Prkdc^scidLyst^bg (SCID), mouse, plasma; infected SCID mice, oral, 50 mg/Kg
Protocol: (§1) Female […] mice (n = 3) aged 7-8 weeks and weighing around 20 to 22 g were used for experimentation after a minimum 7 days of acclimation. Male BALB/c mice (n = 3) aged 8-10 weeks and weighing around 20 to 22 g were also used for experimentation after a minimum 7 days of acclimation. […] Feed was offered 2 h post-dose. Under mild isofluorane […], blood samples were collected by retro-orbital route into labelled centrifuge tubes containing K2EDTA anticoagulant at a concentration of 2 mg/mL of blood during the next 24 h post-dose. Collected blood samples were centrifuged at 4000 rpm for 10 min, and harvested plasma samples were stored at - 80 °C until analysis.

[7] = Single dose pharmacokinetics in Balb/C mice; assay type: in vivo; conditions: normal Balb/C mice; for half-life / AUC(0-t) / Cmax / Tmax: male, mouse, plasma; for half-life: BALB/c, 50 mg/kg
Protocol: as §1

[8] = tested on: P. falciparum Pf3D7^0087/N9; assay: Therapeutic efficacy in SCID mouse model of human falciparum malaria; assay type: in vivo, Plasmodium falciparum in NODscidIL2Rγ^null mice; conditions: for Parasitaemia after 4 days of administration: intraperitoneally, vehicle control 8.43%; for Parasitaemia: oral, vehicle-treated group 7.69%, n = 2
Protocol: For the dose–response study, 50 mg of the compound was used in quintuplicate. Chloroquine (Sigma-Aldrich C6628) was used as the standard drug. The volume of 10 mL/kg was used for administration. Briefly, at day 0, in vitro cultures with approximately 2–5% parasitaemia were taken and diluted in culture medium to 2 × 10^7 parasitized erythrocytes per 0.1 ml. This suspension was injected iv into experimental groups and a control group of n = 2 mice. From day 3 to 6 days post-infection, the experimental groups were treated with a single daily dose by the oral (po) route. Other routes, such as intramuscular and subcutaneous, were also tested using the same protocol. The drug concentration was adjusted in a way to administer 10 ml/kg. […] At 7th day post-infection, 2 μl tail blood was taken. The haematocrit was determined by FACS and parasitaemia by microscopy on > 10,000 red blood cells.
The difference of the mean infection rate of the control group (= 100%) to the test group was calculated and expressed as per cent reduction. […] The results were expressed as a reduction of parasitaemia at day 7 in % as compared to the untreated control group. Values are expressed as mean ± SD.

[9] = Repeated dose 14-day toxicokinetics (TK) study; assay type: in vivo, Sprague–Dawley rats; conditions: for Cmax / half-life / AUC(0-inf) / AUC(0-t) / Tmax: Sprague-Dawley, rat, po, 100 mg/kg
[10] = tested on: cytochrome P450 (CYP) isoforms (any of those tested); assay: CYP inhibition, isoforms tested (summary); assay type: in vitro ADME; conditions: any of the CYP isoforms tested
[11] = both sexes, in vivo, rats, 100 mg/kg body weight
[12] = female, in vivo, female, day 1, 100 mg/kg bw
[13] = female, in vivo, female, day 14, 100 mg/kg bw
[14] = male, in vivo, male, day 1, 100 mg/kg bw
[15] = male, in vivo, male, day 14, 100 mg/kg bw

human HDAC2, sequence (Q92769 whole entry, canonical isoform): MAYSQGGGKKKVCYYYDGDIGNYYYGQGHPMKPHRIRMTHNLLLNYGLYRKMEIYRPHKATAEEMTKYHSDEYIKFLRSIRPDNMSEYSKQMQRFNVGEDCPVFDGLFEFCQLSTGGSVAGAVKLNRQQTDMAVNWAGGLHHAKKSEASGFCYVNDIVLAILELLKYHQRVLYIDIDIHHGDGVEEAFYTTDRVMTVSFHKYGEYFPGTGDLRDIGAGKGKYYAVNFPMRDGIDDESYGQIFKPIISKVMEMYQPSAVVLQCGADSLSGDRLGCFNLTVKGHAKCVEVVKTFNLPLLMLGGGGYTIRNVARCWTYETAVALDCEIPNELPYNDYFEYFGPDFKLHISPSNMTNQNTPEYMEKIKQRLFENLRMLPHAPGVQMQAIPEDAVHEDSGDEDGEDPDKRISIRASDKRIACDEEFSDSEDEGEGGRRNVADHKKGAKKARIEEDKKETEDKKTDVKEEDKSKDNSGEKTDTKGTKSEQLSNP

O=C(NO)c1ccc(Cn2cc(-c3ccc(CN4CCCC4)cc3)nn2)cc1 [FNDR-20123]
IC50 (human HDAC2): 0.029 µM | IC50 (PfHDAC1): 0.031 µM | IC50 (female gametocytes): > 5 µM | In vitro killing profile compared with standard drugs [1]: better than atovaquone and comparable to pyrimethamine | IC50 (Cam3.I (MRA1240)): 0.0221 µM | fraction unbound (Plasma protein binding [2]): > 0.8 | Plasma protein binding (% bound) (Plasma protein binding [3]): 57.30% | fraction unbound (Plasma protein binding [3]; plasma, Human, read-out: Plasma protein binding (% bound) (converted)): 0.43 | remaining at 4 h (in vitro [4]): 89.2% | remaining at 4 h (in vitro [5]): 98.9% | IC50 (CYP1A2): > 60 µM | IC50 (CYP 2D6): 28 µM | IC50 (CYP 3A4): 27 µM | Cytotoxicity to HepG-2 cell line (HepG2): negligible cytotoxicity | Cytotoxicity HepG2 (% @ 100 µM) (HepG2; 100 µM): 12.6% | AUC(0-t) [6]: 1340 ng·h/mL | Cmax [6]: 460 ng/mL | Tmax [6]: 1 h | half-life ([7]; im, intramuscular): 8.72 h | half-life ([7]; po): 2 h | half-life ([7]; sc, subcutaneous): 9.21 h | AUC(0-t) ([7]; im, intramuscular, 50 mg/Kg): 7220 ng·h/mL | Cmax ([7]; im, intramuscular, 50 mg/Kg): 15700 ng/mL | Tmax ([7]; im, intramuscular, 50 mg/Kg): 0.08 h | AUC(0-t) ([7]; sc, subcutaneous, 50 mg/Kg): 11000 ng·h/mL | Cmax ([7]; sc, subcutaneous, 50 mg/Kg): 14000 ng/mL | Tmax ([7]; sc, subcutaneous, 50 mg/Kg): 0.08 h | AUC(0-t) ([7]; oral, 50 mg/Kg): 327 ng·h/mL | Cmax ([7]; oral, 50 mg/Kg): 184 ng/mL | Tmax ([7]; oral, 50 mg/Kg): 1 h | t1/2 ([7]; oral, 50 mg/Kg): 2.02 h | Reduction of parasitaemia ([8]; dosed orally and subcutaneously): reduce parasitaemia significantly | Parasitaemia after 4 days of administration ([8]; 50 mg/kg bw): 0.12% | Parasitaemia after 4 days of administration ([8]; 100 mg/kg bw): 0.19% | Parasitaemia ([8]; 10 mg/kg bw for 4 days): 6.5% | Parasitaemia ([8]; 50 mg/kg bw for 4 days): 2.57% | Accumulation (toxicokinetic profile) ([9]; 100 mg/kg bw oral gavage, 14 days): no accumulation | Cmax [9, 11]: 1100 nM | half-life [9, 11]: 5.5 h | half-life ([9]; female, blood, female, day 1, 100 mg/kg bw): 3.21 ± 0.41 h | AUC(0-inf) [9, 12]: 448 ± 113 ng·h/mL | AUC(0-t) [9, 12]: 345 ± 71.6 ng·h/mL | Cmax [9, 12]: 229 ± 69.3 ng/mL | Tmax [9, 12]: 0.28 ± 0.21 h | AUC(0-inf) [9, 13]: 573 ± 23.1 ng·h/mL | AUC(0-t) [9, 13]: 480 ± 49.7 ng·h/mL | Cmax [9, 13]: 207 ± 36.1 ng/mL | Tmax [9, 13]: 0.14 ± 0.1 h | half-life ([9]; male, blood, male, day 1, 100 mg/kg bw): 5.72 ± 4.1 h | half-life ([9]; male, blood, male, day 14, 100 mg/kg bw): 2.3 ± 0.55 h | AUC(0-inf) [9, 14]: 1280 ± 282 ng·h/mL | AUC(0-t) [9, 14]: 712 ± 234 ng·h/mL | Cmax [9, 14]: 420 ± 174 ng/mL | Tmax [9, 14]: 0.33 ± 0.14 h | AUC(0-inf) [9, 15]: 1080 ± 216 ng·h/mL | AUC(0-t) [9, 15]: 957 ± 181 ng·h/mL | Cmax [9, 15]: 703 ± 362 ng/mL | Tmax [9, 15]: 0.19 ± 0.1 h | IC50 [10]: > 25 µM

Reference: publication PMC7549214 (Malaria Journal, 2020)
